The values that follow come from PubChem BioAssay AID1259407 (Chemical Carcinogenesis Research Information System (CCRIS), 2018).

This data set has as its system CCRIS mutagenicity, Ames/micronucleus/aberration tests. Put plainly: CCRIS mutagenicity studies.
[1] abbreviates: Test System: AMES SALMONELLA TYPHIMURIUM, Strain/Indicator: TA100, Metabolic Activation: NONE, Method: STANDARD PLATE.

Activity calls are given as the source filed them. How the calls were made is not given here.

Turning to `O=[N+]([O-])c1ccc2c(c1)cc([N+](=O)[O-])c1ccccc12`, the mutagenic call (Test System: AMES SALMONELLA TYPHIMURIUM, Strain/Indicator: TA98(1,8-DNP6), Metabolic Activation: NONE, Method: STANDARD PLATE) was “active; positive”; the mutagenic call (Test System: AMES SALMONELLA TYPHIMURIUM, Strain/Indicator: TA98(NR), Metabolic Activation: NONE, Method: STANDARD PLATE) is “active; positive”; the mutagenic call (Test System: AMES SALMONELLA TYPHIMURIUM, Strain/Indicator: TA98, Metabolic Activation: NONE, Method: STANDARD PLATE) was “active; positive”; the mutagenic call under setting [1] was “active; positive”; the mutagenic call (Test System: AMES SALMONELLA TYPHIMURIUM, Strain/Indicator: YG1021, Metabolic Activation: NONE, Method: STANDARD PLATE) was “active; positive”; the mutagenic call (Test System: AMES SALMONELLA TYPHIMURIUM, Strain/Indicator: YG1024, Metabolic Activation: NONE, Method: STANDARD PLATE) is “active; positive”. Also, the mutagenic call (Test System: AMES SALMONELLA TYPHIMURIUM, Strain/Indicator: YG1026, Metabolic Activation: NONE, Method: STANDARD PLATE) is “active; positive” and the mutagenic call (Test System: AMES SALMONELLA TYPHIMURIUM, Strain/Indicator: YG1029, Metabolic Activation: NONE, Method: STANDARD PLATE) is “active; positive”.

Regarding `C[C@H](CCC(=O)O)[C@H]1CC[C@H]2[C@@H]3[C@@H](O)C[C@@H]4C[C@H](O)CC[C@]4(C)[C@H]3CC[C@]12C`, the mutagenic call reads like this: (Test System: AMES SALMONELLA TYPHIMURIUM, Strain/Indicator: TA98, Metabolic Activation: NONE, Method: FLUCTUATION TEST) “active; positive”; (Test System: AMES SALMONELLA TYPHIMURIUM, Strain/Indicator: TA100, Metabolic Activation: NONE, Method: FLUCTUATION TEST) “inactive; negative”; under setting [1], “inactive; negative”; (Test System: AMES SALMONELLA TYPHIMURIUM, Strain/Indicator: TA100, Metabolic Activation: RAT, LIVER, S-9, AROCLOR 1254, Method: STANDARD PLATE) “inactive; negative”.

Take `C[C@@H](C(=O)OC(C)(C)C)N(N=[N+]=[N-])C(=O)OC(C)(C)C`: under setting [1], the mutagenic call is “active; positive”.

As to `NC(=O)N(CCCO)N=O`, the mutagenic call was “active; positive” (Test System: E. COLI B, Strain/Indicator: H/R30R, Metabolic Activation: NONE) and “active; positive” (Test System: E. COLI B, Strain/Indicator: HS30R, Metabolic Activation: NONE).
